Values joined by “and” are separate entries in the source; they are usually repeats but may differ in a detail not shown here. Equal entries are not always repeated.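 Briefly, cells in 96-well plates were exposed to five compound concentrations for 48 h, and endpoints were estimated by linear interpolation. GI50 = concentration required for 50% inhibition of growth. TGI marks complete inhibition of growth.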
What was measured:
Assay in all cases: NCI anticancer screen, dose series, 48 h
SK-OV-3 ovarian = system: SK-OV-3 ovarian
UACC-62 melanoma = system: UACC-62 melanoma
A498 renal = system: A498 renal
OVCAR-5 ovarian = system: OVCAR-5 ovarian
TK-10 renal = system: TK-10 renal
MCF7 breast = system: MCF7 breast
SN12C renal = system: SN12C renal
MDA-MB-231 breast = system: MDA-MB-231 breast
SF-295 CNS = system: SF-295 CNS
SW-620 colon = system: SW-620 colon

SMILES	GI50 (SK-OV-3 ovarian)	TGI (SK-OV-3 ovarian)	GI50 (UACC-62 melanoma)	TGI (UACC-62 melanoma)	GI50 (A498 renal)	TGI (A498 renal)	GI50 (OVCAR-5 ovarian)	TGI (OVCAR-5 ovarian)	GI50 (TK-10 renal)	TGI (TK-10 renal)	GI50 (MCF7 breast)	TGI (MCF7 breast)	GI50 (SN12C renal)	TGI (SN12C renal)	GI50 (MDA-MB-231 breast)	TGI (MDA-MB-231 breast)	GI50 (SF-295 CNS)	TGI (SF-295 CNS)	GI50 (SW-620 colon)	TGI (SW-620 colon)
Cc1cc(O)cc(C)c1/C=C/c1cncc(-c2nn[nH]n2)c1	> 25 µM	> 25 µM	> 25 µM	> 25 µM	> 25 µM	> 25 µM	> 25 µM	> 25 µM	> 25 µM	> 25 µM	> 25 µM	> 25 µM	> 25 µM	> 25 µM	> 25 µM	> 25 µM	> 25 µM	> 25 µM	> 25 µM	> 25 µM
CCc1cc2c(cc1N1CCC(N3CCOCC3)CC1)C(C)(C)c1[nH]c3cc(C#N)ccc3c1C2=O	1.64 µM and 1.87 µM and 2.84 µM	3.4 µM and 3.72 µM and 8.64 µM	3.17 µM and 3 µM and 2.64 µM	18.1 µM and 13.7 µM and > 10 µM	0.817 µM and 0.867 µM and 1.59 µM	4.02 µM and 4.95 µM and > 10 µM	1.52 µM and 1.29 µM and 1.93 µM	19.3 µM and 9.3 µM and > 10 µM	1.66 µM and 1.71 µM and 1.42 µM	3.61 µM and 3.95 µM and 3.05 µM	1.66 µM and 1.64 µM and 1.34 µM	> 23.8 µM and 15.6 µM and > 10 µM	2.23 µM and 1.44 µM and 1.55 µM	8.69 µM and 6.23 µM and 4.5 µM	1.53 µM and 1.71 µM and 2.11 µM	5.21 µM and 4.65 µM and 6.37 µM	2.56 µM and 2.95 µM and 1.61 µM	9.06 µM and 13.2 µM and 3.68 µM	0.924 µM and 1.26 µM and 1.08 µM	> 21.8 µM and 22 µM and > 10 µM
C[C@H]1[C@H]2[C@H]3CC[C@@H]4[C@@]5(C)C/C(=C/c6cccnc6)C(=O)C(C)(C)[C@@H]5CC[C@@]4(C)[C@]3(C)CC[C@]23CO[C@]1(C)[C@@H](C(=O)/C=C\c1cccnc1)C3	5.9 µM	> 50 µM	0.67 µM	1.67 µM	0.661 µM	1.54 µM	1.46 µM	4.43 µM	1.72 µM	8.21 µM	0.842 µM	6.25 µM	1.1 µM	> 11.8 µM	1.27 µM	8.01 µM	1.38 µM	6.21 µM	1.02 µM	2.51 µM
CCN(CC)CCNc1cc(-c2cccc(OC(F)(F)F)c2)nc2ccc(N3CCCC3)cc12	1.69 µM and 1.88 µM and 3.01 µM	3.63 µM and 3.66 µM and 9.59 µM	1.81 µM and 1.82 µM and 1.79 µM	3.47 µM and 3.28 µM and 3.51 µM	1.61 µM and 1.82 µM and 3.42 µM	6.15 µM and 3.44 µM and 14.9 µM	1.94 µM and 2.24 µM	3.93 µM and 3.83 µM and 6.12 µM	2.06 µM and 1.87 µM and 2.31 µM	4.5 µM and 3.49 µM and 5.73 µM	1.64 µM and 1.45 µM and 1.76 µM	3.44 µM and 2.9 µM and 3.62 µM	1.69 µM and 1.53 µM and 1.89 µM	3.37 µM and 2.98 µM and 3.86 µM	1.68 µM and 1.65 µM and 1.5 µM	3.27 µM and 3.31 µM and 3.13 µM	1.63 µM and 1.73 µM and 1.92 µM	3.23 µM and 3.36 µM and 3.79 µM	1.67 µM and 1.86 µM and 2.01 µM	3.25 µM and 3.79 µM and 4.36 µM
O=C(NN=C1CCCCC1)c1[nH]c2ccc(F)cc2c1-c1ccccc1	35.1 µM	> 100 µM	38.6 µM	> 100 µM	38.1 µM	> 100 µM	45.6 µM	> 100 µM	91 µM	> 100 µM	26.8 µM	80.4 µM	28.6 µM	84.8 µM	49 µM	> 100 µM	33.6 µM	> 100 µM	46.9 µM	> 100 µM
CCOC(=O)C(C)(C)C(O)C(C)C (stereo not given)	–	> 100 µM	–	> 100 µM	–	> 100 µM	–	> 100 µM	–	> 100 µM	–	> 100 µM	–	> 100 µM	–	> 100 µM	–	> 100 µM	–	> 100 µM
